Measured values reported in patent US6482841B1, “Pyridyl compounds and pharmaceutical compositions containing them” (Cermol S.A., priority 1997, dated 2002).

Assays:
[1] = test system: anaesthetised rats; assay: In vivo cardioprotective effect: coronary occlusion and reperfusion in anaesthetised rats; parameters: species or system rat; details: 2 × 20 mg/kg orally (one day and one hour before the experiment)
Description: Cardiac death and arrhythmias were induced by the coronary occlusion and reperfusion method in anaesthetised rats according to the method of Seyle et al. (Angiology, 1960, 11, 398-407) modified by Krzeminski T. (“proceedings of 7th Freiburg Focus of Biomeasurement”, Strasbourg, 16-19 September 1991) Cardiovascular and Respiratory in vivo Studies, Biomesstechnik, Verlag March GmbH, Germany) and according to the LAMBETH conventions (Walker M. J. A. et al., Cardiovasc Re., […], 22, 447-455). The products have been administered orally (one day and one hour before the experiment). They are given in percentage of protection against the mortality and the arrhythmias (ventricular fibrillations).

[2] = test system: isolated guinea-pig ventricular myocytes; assay: Protection of isolated ventricular myocytes from hypercontracture obtained by incubation with veratridine; assay type: cell-based; details: 1 μM, with reference to vehicle-treated cells
Procedure: (§1) Isolated guinea-pig ventricular myocytes were obtained following the method described by Powell et al. (J. Physiol., 1980, 102: 131) as modified by Levi et al. (J. Physiol., 1990, 425:9P). Cell hypercontracture and death was obtained either by incubation under N2 atmosphere or by incubation with veratridine which induced important changes in the ionic homeostase of cardiomyocytes (Hiroko Hashizume et al., European Journal of Pharmacology, […], 271: 1-8). Results expressed as percentage of cells protected from hypercontracture i.e. maintaining its rod-shaped morphology with reference to vehicle-treated cells are given in the tables I and II hereafter.

[3] = test system: isolated guinea-pig ventricular myocytes; assay: Protection of isolated ventricular myocytes from hypercontracture obtained by incubation under N2 atmosphere; assay type: cell-based; details: 30 nM, with reference to vehicle-treated cells
Procedure: as §1

[4] = test system: guinea-pig ventricular cardiomyocytes action potential; assay: Action potential of ventricular cardiomyocytes in anoxic condition under N2 atmosphere (patch clamp); assay type: cell-based; details: 100-300 nM
Procedure: (§2) In order to confirm the cardioprotection, the activity of one of the most interesting compound (example 31 according to the invention) was tested on guinea-pig ventricular cardiomyocytes action potential (AP) in the presence of veratridine or in anoxic condition. The action potential (AP) time courses of guinea-pig ventricular cardiomyocytes treated with veratridine or made anoxic by incubation under N2 atmosphere were measured (patch clamp technique) in absence and presence of the compound of example 31 according to the invention. […] In anoxic conditions, there is a shortening of cardiomyocyte action potential duration related mainly with an activation of K+-ATP dependent current.

[5] = test system: guinea-pig ventricular cardiomyocytes action potential; assay: Action potential of ventricular cardiomyocytes in the presence of veratridine (patch clamp); assay type: cell-based
Procedure: as §2

Row | Compound | melting point [°C] | % PROTECTION AGAINST DEATH [1] [%] | % PROTECTION AGAINST VENTRICULAR FIBRILLATIONS [1] [%] | % Protection (cells protected from hypercontracture) [2] [%] | % Protection (cells protected from hypercontracture) [3] [%] | Shortening of cardiomyocyte action potential duration in anoxic conditions (K+-ATP dependent current) [4] | Prolongation of cardiomyocyte action potential duration induced by veratridine ([5]; 100-300 nM, veratridine) | Influence on the normal action potential ([5]; normal action potential)
1 | COC(=O)c1c(C)nc(C)c(C(=O)OCC2CCCO2)c1-c1cccc(F)c1 (centres unmarked) [Example 3, 2,6-Dimethyl-4-(3-fluorophenyl) pyridine-3,5-dicarboxylic acid 3-methyl ester 5-(tetrahydrofuran-2-ylmethyl) ester] | 66 to 68 |  |  |  |  |  |  | 
2 | COC(=O)c1c(C)nc(C)c(C(=O)OC)c1-c1ccccc1[N+](=O)[O-] [Example 25, 2,6-Dimethyl-4-(2-nitrophenyl) pyridine-3,5-dicarboxylic acid dimethyl ester] |  | 100 | 50 | 34 | 50 |  |  | 
3 | COC(=O)c1c(C)nc(C)c(C(=O)OCC2CCC(=O)O2)c1-c1ccccc1[N+](=O)[O-] (centres unmarked) [Example 15, 2,6-Dimethyl-4-(2-nitrophenyl) pyridine-3,5-dicarboxylic acid 3-methyl ester 5-(5-oxotetrahydrofuran-2-ylmethyl)ester] | 132 to 134 |  |  |  |  |  |  | 
4 | COC(=O)c1c(C)nc(C)c(C(=O)OCC(C)C)c1-c1ccccc1[N+](=O)[O-] [Example 23, 2,6-Dimethyl-4-(2-nitrophenyl)-pyridine-3,5-dicarboxylic acid 3-methyl ester 5-isobutyl ester] |  | 100 | 75 | 41.3 | 50 |  |  | 
5 | COC(=O)c1c(C)nc(C)c(C(=O)OCC2CCCO2)c1-c1cccc(O)c1.Cl (centres unmarked) | 95 to 97 |  |  |  |  |  |  | 
6 | COC(=O)c1c(C)nc(C)c(C(=O)OCC2CCCO2)c1-c1cccc(NC(C)=O)c1.Cl (centres unmarked) | 196 to 198 |  |  |  |  |  |  | 
7 | COC(=O)c1c(C)nc(C)c(C(=O)OCC2CCCO2)c1-c1ccccc1[N+](=O)[O-] (centres unmarked) [Example 12, 2,6-Dimethyl-4-(2-nitrophenyl) pyridine-3,5-dicarboxylic acid 3-methyl ester 5-(tetrahydrofuran-2-ylmethyl) ester] |  | 100 | 100 | 57 | 80 |  |  | 
8 | COCCOC(=O)c1c(C)nc(C)c(C(=O)OC(C)C)c1-c1cccc([N+](=O)[O-])c1 [Example 22, 2,6-Dimethyl-4-(3-nitrophenyl)-pyridine-3,5-dicarboxylic acid 3-isopropyl ester 5-(2-methoxyethyl) ester] |  | 100 | 50 | 37.5 | 63 |  |  | 
9 | CCOC(=O)c1c(C)nc(C)c(C(=O)OC)c1-c1cccc([N+](=O)[O-])c1 [Example 24, 2,6-Dimethyl-4-(3-nitrophenyl)pyridine-3,5-dicarboxylic acid 3-ethyl 5-methyl ester] |  | 100 | 37.5 | 37.5 | 60 |  |  | 
10 | COC(=O)c1c(C)nc(C)c(C(=O)O)c1-c1ccccc1[N+](=O)[O-] [Example 31, 2,6-Dimethyl-4-(2-nitrophenyl) pyridine-3,5-dicarboxylic acid 3-methyl ester] |  | 85.7 | 73.4 | 64 | 58 | inhibited dose-dependently and strongly | prevents | does not influence significantly
11 | Cc1nc(C)c(C(=O)OCC2CCCO2)c(-c2cccc([N+](=O)[O-])c2)c1C(=O)OCC1CCCO1.Cl (centres unmarked) | 75 to 77 |  |  |  |  |  |  | 
